Laboratory results taken from ChEMBL document CHEMBL1201862, “PubChem BioAssay data set” (2004).
Activity calls are given as the source filed them.

What was measured:
[1] = biological target: T1, High affinity choline transporter 1 (Homo sapiens, UniProt Q9GZV3); assay: human choline transporter blockers, potency – cell-based, 5-point CRC, membrane potential dye, dose response (AID 504840); type: functional
T1 sequence (Q9GZV3 whole entry): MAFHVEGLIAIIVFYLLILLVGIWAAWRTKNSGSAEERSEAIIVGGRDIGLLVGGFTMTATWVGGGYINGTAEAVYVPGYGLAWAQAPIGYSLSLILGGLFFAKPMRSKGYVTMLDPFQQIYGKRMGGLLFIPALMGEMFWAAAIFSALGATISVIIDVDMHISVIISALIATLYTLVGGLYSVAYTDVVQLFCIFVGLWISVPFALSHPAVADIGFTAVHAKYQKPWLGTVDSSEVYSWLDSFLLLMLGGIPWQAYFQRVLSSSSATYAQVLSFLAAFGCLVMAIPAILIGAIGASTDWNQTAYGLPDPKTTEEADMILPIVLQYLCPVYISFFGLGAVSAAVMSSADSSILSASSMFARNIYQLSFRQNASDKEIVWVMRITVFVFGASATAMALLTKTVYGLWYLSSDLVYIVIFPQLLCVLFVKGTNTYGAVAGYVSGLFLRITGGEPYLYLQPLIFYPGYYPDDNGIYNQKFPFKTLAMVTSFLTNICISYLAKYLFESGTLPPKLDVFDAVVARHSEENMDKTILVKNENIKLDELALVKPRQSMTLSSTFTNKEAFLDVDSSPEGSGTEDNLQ

[2] = tested on: P388/ADR; assay: cells; type: functional; conditions: Mus musculus
[3] = tested on: SN12K1; assay: cells; type: functional; conditions: Homo sapiens
[4] = tested on: P388; assay: cells; type: functional; conditions: Mus musculus
[5] = biological target: Heat shock protein HSP 90-alpha (Homo sapiens, UniProt P07900); type: functional, organism-based
[6] = tested on: HEK293; assay: EBV LMP1 TES2 canonical NF-kB signalling blockers – cell-based, HEK293, luciferase, cherry-pick, dose response (AID 588343); type: functional; conditions: Homo sapiens
[7] = biological target: Large T antigen (Simian virus 40, UniProt P03070); type: functional, Betapolyomavirus macacae;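 note: Confirmatory-stage PubChem screen for compounds that inhibit SV40 T antigen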
[8] = P. falciparum Dd2 growth inhibitors, dose response, SYBR Green, cherry-picked samples (AID 1159567); type: functional, cell-based
[9] = toxicity to human hepatoma HepG2 cells – cell-based, cherry-picked samples, cytotoxicity control, dose response (AID 1159577); type: functional
[10] = biological target: Cytochrome P450 3A4 (Homo sapiens, UniProt P08684); conditions: Potency;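 note: confirmatory qHTS run detecting inhibitors and substrates of CYP3A4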
Chain of Cytochrome P450 3A4 (P08684 whole entry): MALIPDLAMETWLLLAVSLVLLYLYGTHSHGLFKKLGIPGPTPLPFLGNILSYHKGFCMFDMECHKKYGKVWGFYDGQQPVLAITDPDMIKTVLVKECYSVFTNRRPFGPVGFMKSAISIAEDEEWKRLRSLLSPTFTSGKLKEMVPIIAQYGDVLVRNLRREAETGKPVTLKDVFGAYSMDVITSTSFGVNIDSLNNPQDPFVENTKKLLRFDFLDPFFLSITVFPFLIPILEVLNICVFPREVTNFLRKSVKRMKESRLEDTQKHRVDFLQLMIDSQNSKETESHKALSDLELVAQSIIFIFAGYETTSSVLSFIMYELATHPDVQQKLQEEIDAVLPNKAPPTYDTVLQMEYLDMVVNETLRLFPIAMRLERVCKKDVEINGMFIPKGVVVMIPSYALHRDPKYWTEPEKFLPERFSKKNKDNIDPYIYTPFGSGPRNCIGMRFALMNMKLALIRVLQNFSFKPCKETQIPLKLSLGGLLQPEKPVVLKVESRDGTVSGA

Chain of Large T antigen (P03070 whole entry): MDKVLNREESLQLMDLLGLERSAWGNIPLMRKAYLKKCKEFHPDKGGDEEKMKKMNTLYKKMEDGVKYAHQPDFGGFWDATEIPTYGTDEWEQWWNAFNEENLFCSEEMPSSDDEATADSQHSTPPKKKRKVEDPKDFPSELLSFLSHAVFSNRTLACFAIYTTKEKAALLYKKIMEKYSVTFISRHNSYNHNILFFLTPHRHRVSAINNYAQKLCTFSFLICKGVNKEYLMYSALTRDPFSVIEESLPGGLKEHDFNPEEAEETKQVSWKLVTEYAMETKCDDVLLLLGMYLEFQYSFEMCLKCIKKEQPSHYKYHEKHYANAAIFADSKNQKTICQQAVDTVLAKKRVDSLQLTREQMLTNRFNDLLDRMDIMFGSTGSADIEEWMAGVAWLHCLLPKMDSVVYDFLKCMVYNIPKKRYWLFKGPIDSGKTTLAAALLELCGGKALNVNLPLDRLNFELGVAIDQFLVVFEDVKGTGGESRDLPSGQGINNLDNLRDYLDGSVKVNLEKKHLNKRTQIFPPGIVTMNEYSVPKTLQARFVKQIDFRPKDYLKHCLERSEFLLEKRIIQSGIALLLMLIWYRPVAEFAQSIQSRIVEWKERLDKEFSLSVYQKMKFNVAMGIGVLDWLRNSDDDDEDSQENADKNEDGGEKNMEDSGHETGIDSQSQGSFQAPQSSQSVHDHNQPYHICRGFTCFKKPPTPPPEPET

Row | Structure (SMILES) | GI50 [2] | GI50 [3] | GI50 [4] | other results
1 | Cc1ccc(NC(=O)CNC(=O)c2cccc(Cl)c2)nc1 | – | – | – | IC50 [1]: 13.1 µM (active)
2 | CC(C)c1ccc(/C=C(\NC(=O)c2ccccc2)C(=O)NCCCn2ccnc2)cc1 | – | – | – | IC50 [1]: 15.8 µM (active)
3 | Cc1c2ccncc2cc2c1[nH]c1ccccc12 | 2.93 µM (inactive) | 3.72 µM (inactive) | 1.61 µM (inactive) | –
4 | CCCCCCC(Cl)(Cn1ccnc1)c1ccccc1 (centres undefined) | – | – | – | AC50 [5]: 8.5 µM (active)
5 | CCOc1ccc(/C=N/Nc2cc(N3CCOCC3)ncn2)c(O)c1 | – | – | – | AC50 [6]: 15.5 µM (active)
6 | Cc1c2ccnc(C(N)=O)c2c(C)c2c1[nH]c1ccccc12 | 12.9 µM (inactive) | 5.46 µM (inactive) | 2.9 µM (inactive) | –
7 | CCCCCCCCCCCCCCCCCCOCC(COCCOCC[N+]1(CCCCCC(=O)[O-])CCCC1)Oc1ncccn1 (centres undefined) | 11.2 µM (inactive) | 4.12 µM (inactive) | 0.288 µM (active) | –
8 | COC1OC(=O)[C@H]2O[N+]([O-])=C(C)[C@@H]12 (some centres undefined) | > 100 µM (inactive) | > 100 µM (inactive) | > 100 µM (inactive) | –
9 | NC1CCCCC1.O=P(O)(O)C(CSc1ccccc1)P(=O)(O)O | > 100 µM (inactive) | > 100 µM (inactive) | > 100 µM (inactive) | –
10 | COc1ccc(C2COc3cc(O)c(O)cc3C2)cc1 (centres undefined) | 1.19 µM (inactive) | 13.8 µM (inactive) | 1.67 µM (inactive) | –
11 | CCn1c2ccccc2c2cc(/C=N/NC(=O)c3ccncc3)ccc21 | – | – | – | AC50 [6]: 1.46 µM (active)
12 | Oc1ccc(/C=N/N2CCN(c3ccccn3)CC2)cc1 | – | – | – | IC50 [7]: 42.5 µM (active)
13 | Oc1c(Cl)cc(Cl)cc1/C=N/c1ccc(Br)cc1 | – | – | – | IC50 [1]: 13.2 µM (active)
14 | CCS(=O)(=O)N1[C@H](CO)[C@H](c2ccc(C#CCC3CCCC3)cc2)[C@@H]1C#N | – | – | – | AC50 [8]: 5.64 µM (active); AC50 [9]: 62.4 µM (active)
15 | CN(C)C(=O)c1ccc(-c2ccc3c(c2)[C@@H]2[C@@H](CCN2C(=O)C2CCCC2)[C@H](CO)N3C)cc1 | – | – | – | AC50 [8]: 6.47 µM (active); AC50 [9]: > 39 µM (inactive)
16 | COc1ccc2c3c(n(C)c2c1)[C@H](CO)N(C(=O)Nc1ccccc1F)CC31CN(C)C1 | – | – | – | AC50 [8]: 6.4 µM (active); AC50 [9]: 18.5 µM (active)
17 | CC(C)CC#Cc1ccc2c(c1)O[C@@H](CN(C)Cc1cccc(F)c1)[C@H](C)CN([C@H](C)CO)S2(=O)=O | – | – | – | AC50 [8]: 4.19 µM (active); AC50 [9]: 17.1 µM (active)
18 | CC(C)NC[C@@H]1[C@@H](c2ccc(C3=CCCCC3)cc2)[C@@H](CO)N1C(=O)CC1CC1 | – | – | – | AC50 [8]: 6.18 µM (active); AC50 [9]: 36 µM (active)
19 | C=CCSSSCC=C [ALLITRIDIN] | – | – | – | AC50 [10]: 39.8 µM (inconclusive)
20 | C/C(=C\COc1ccc2ccc(=O)oc2c1)C1=CC(=O)C(C)(C)O1 [GEIPARVARIN] | 1.44 µM (inactive) | 3.76 µM (inactive) | 1.9 µM (inactive) | –
